Assay results from patent US20160102067A1, “OXIRAN AMINES” (V-BIOTEK HOLDING APS, priority 2012, published 2016).
≈ marks a conversion by molar mass, not a printed value.

Key:
[1] = system: MSSA (meticillin-sensitive staphylococcus aureusis); experiment: MIC determination for MSSA; type: cell-based; details: Staphylococcus aureus, dilution series, read-out: MIC (Minimum Inhibitory Concentration)
Method: (§1) 15.3 mg 2-Methyl-3-nonyloxiran-2-amine obtained in example 6 was mixed with 100 μl DMSO (Dimethyl sulfoxid) to obtain a stock solution. The stock solution was used for determining the MIC (Minimum Inhibitory Concentration) for MRSA (meticillin-resistant staphylococcus aureusis) and MSSA (meticillin-sensitive staphylococcus aureusis).

[2] = system: P. falciparum; experiment: [3H]-hypoxanthine incorporation, growth rate of P. falciparum (Example 7); type: cell-based, Plasmodium falciparum; details: [3H]-hypoxanthine incorporation after 48 hrs, 3 fold dilution series, FIG. 15
Method: 15.3 mg 2-Methyl-3-nonyloxiran-2-amine obtained in example 6 was mixed with 100 μl DMSO (Dimethyl sulfoxid) to obtain a stock solution. A first solution was prepared by mixing 100 uL of the stock solution with 400 uL of parasite media. Subsequently this solution was diluted in 15 dilution series, each dilution serie being diluted 3 fold. The same protecol as used in example 6 was applied for this experiment.
Specifically, the incorporation of [3H]-hypoxanthine was used as a measure for the life conditions of P. falciparum. Parasites were syncronised to ring stages by […] treatment and then incubated at 0.3% parasitemia at 5% haematocrit in 100 uL of growth medium containing [3H]-hypoxanthine over one cycle of replication, i.e. 48 hrs. Each experiment was performed in triplets.

[3] = system: MRSA (meticillin-resistant staphylococcus aureusis); experiment: MIC determination for MRSA; type: cell-based; details: Staphylococcus aureus, dilution series, read-out: MIC (Minimum Inhibitory Concentration)
Method: as §1

[4] = system: erythrocytic stages of P. falciparum; experiment: [3H]-hypoxanthine incorporation assay with extract, P. falciparum strain K1; type: cell-based, Plasmodium falciparum; details: extract at a dilution of 160 times
Method: In vitro activity of extract dilutions were tested against erythrocytic stages of P. falciparum by a modified [3H]-hypoxanthine incorporation assay (Scala, F., Fattorusso, E., Menna, M., Taglialatela-Scafati, O., Tiemey, M., Kaiser, M., Tasdemir, D., 2010. Bromopyrrole alkaloids as lead compounds against protozoan parasites. Marine Drugs 8, 2162-2174.) using the […] strain K1. The standard drug used as a positive control was amodiaquine.
Briefly, parasite cultures incubated in RPMI 1640 medium with 5% Albumax (without hypoxanthine) were exposed to serial extract dilutions in microtiter plates. After 48 h of incubation at 37 ° C. in a reduced oxygen atmosphere, 0.5 μCi 3H-hypoxanthine was added to each well. Cultures were incubated for a further 24 h before they were harvested onto glass-fiber filters and washed with distilled water. The radioactivity was counted using a Betaplate™ liquid scintillation counter (Wallac, Zurich, Switzerland). The results were recorded as counts per minute (CPM) per well at each drug concentration and expressed as percentage of the untreated controls. IC50 values were calculated from graphically plotted dose-response curves. Each IC50 value obtained is the mean of at least two separate experiments performed in duplicate (the variation is maximum 20%).

CCCCCCCCCC1OC1(C)N (stereo not shown) [2-Methyl-3-nonyloxiran-2-amine]
MIC [1]: 9.6 mg/mL (≈ 48.2 mM) | growth rate of P. Falciparum [2]: concentration dependent inhibition | MIC [3]: 38.3 mg/mL (≈ 192 mM)

CCN(CC)Cc1cc(Nc2ccnc3cc(Cl)ccc23)ccc1O [amodiaquine]
[3H]-hypoxanthine incorporation value [4]: 47.5 CPM
